Tests used:
[1] = biological target: T1, ATP-dependent Clp protease proteolytic subunit, mitochondrial (Homo sapiens, UniProt Q16740); assay: Agonist activity at human CLpP by measuring alpha-casein hydrolysis using alpha-casein as substrate preincubated for 10 mins followed by substrate addition and measured after 120 mins by Coomassie brilliant blue staining based SDS-PAGE assay
[2] = test system: MOLM-13; assay: Antiproliferative activity against human MOLM-13 cells assessed as inhibition of cell growth at 20 uM by CCK-8 assay relative to control; assay type: functional
[3] = biological target: T1, ATP-dependent Clp protease proteolytic subunit, mitochondrial; assay: Agonist activity at human CLpP by measuring alpha-casein hydrolysis using alpha-casein as substrate by FITC staining based assay
[4] = biological target: T1, ATP-dependent Clp protease proteolytic subunit, mitochondrial; assay: Binding affinity to human CLpP assessed as change in melting temperature by DSF assay; conditions: filed as agonist
[5] = test system: NB-4; assay: Inhibition of colony formation in human NB4 cells incubated for 14 days; assay type: functional, cell-based; conditions: time 14.0 day

T1 sequence (Q16740 whole entry): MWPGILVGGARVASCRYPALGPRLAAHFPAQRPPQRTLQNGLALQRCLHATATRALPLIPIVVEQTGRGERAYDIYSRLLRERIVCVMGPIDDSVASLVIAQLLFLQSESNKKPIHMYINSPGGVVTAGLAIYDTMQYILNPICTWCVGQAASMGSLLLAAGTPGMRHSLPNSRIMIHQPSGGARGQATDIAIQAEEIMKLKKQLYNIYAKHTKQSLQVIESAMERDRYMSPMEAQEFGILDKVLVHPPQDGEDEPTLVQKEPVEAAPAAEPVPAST

SMILES | EC50 [1] | EC50 [3] | ΔTm [4] | inhibition at 20 µM [2] | inhibition [5]
CC[C@H](C)[C@H]1C(=O)N(Cc2cccc3c2OCO3)C[C@@H]2N(C(=O)NCc3ccc(Br)cc3)CCC(=O)N12 | 14.9 µM | – | – | 44.4% | –
O=C1[C@H](Cc2ccc(O)cc2)N2C(=O)CCN(C(=O)NCc3ccccc3)[C@H]2CN1Cc1cccc2ccccc12 | 7.1 µM | – | – | 86.9% | –
CC[C@H](C)[C@H]1C(=O)N(Cc2cccc3ccccc23)C[C@@H]2N(C(=O)CCc3ccc(F)cc3)CCC(=O)N12 | 10.4 µM | – | – | 58.2% | –
CC[C@H](C)[C@H]1C(=O)N(Cc2cccc3ccccc23)C[C@@H]2N(C(=O)NCC3CCCCC3)CCC(=O)N12 | 11.2 µM | – | – | 99.5% | –
CCCCNC(=O)N1CCC(=O)N2[C@@H]([C@@H](C)CC)C(=O)N(Cc3cccc4ccccc34)C[C@H]12 | 4.6 µM | – | – | 23.6% | –
CC[C@H](C)[C@H]1C(=O)N(Cc2cccc3ccccc23)C[C@@H]2N(C(=O)NCc3ccc4ccccc4c3)CCC(=O)N12 | 10.6 µM | – | – | 99.3% | –
CC[C@H](C)[C@H]1C(=O)N(Cc2cccc3ccccc23)C[C@@H]2N(C(=O)NCc3ccc4c(c3)OCO4)CCC(=O)N12 | 5.8 µM | – | – | 78.6% | –
CC[C@H](C)[C@H]1C(=O)N(Cc2cccc3ccccc23)C[C@@H]2N(C(=O)NCc3ccc(OC)c(OC)c3)CCC(=O)N12 | > 25 µM | – | – | 35.2% | –
CSCC[C@H]1C(=O)N(Cc2cccc3ccccc23)C[C@@H]2N(C(=O)NCc3ccccc3)CCC(=O)N21 | 15.9 µM | – | – | 24.4% | –
NC(=O)C[C@H]1C(=O)N(Cc2cccc3ccccc23)C[C@@H]2N(C(=O)NCc3ccccc3)CCC(=O)N21 | > 25 µM | – | – | 5.5% | –
CC[C@H](C)[C@H]1C(=O)N(Cc2cccc3ccccc23)C[C@@H]2N(C(=O)NCc3ccc(C(C)C)cc3)CCC(=O)N12 | > 25 µM | – | – | 97.7% | –
CC[C@H](C)[C@H]1C(=O)N(Cc2cccc3ccccc23)C[C@@H]2N(C(=O)NC(C)(C)c3ccccc3)CCC(=O)N12 | 4.3 µM | – | – | 46.3% | –
CC[C@H](C)[C@H]1C(=O)N(Cc2ccc(F)c3ccccc23)C[C@@H]2N(C(=O)NCc3ccc(Br)cc3)CCC(=O)N12 | 3.8 µM | – | – | 97.7% | –
CC[C@H](C)[C@H]1C(=O)N(Cc2cccc3ccccc23)C[C@@H]2N(C(=O)NCc3ccc(OC)cc3)CCC(=O)N12 | 3.4 µM | – | – | 99.4% | –
O=C1[C@H](Cc2cnc[nH]2)N2C(=O)CCN(C(=O)NCc3ccccc3)[C@H]2CN1Cc1cccc2ccccc12 | 22.8 µM | – | – | 13.4% | –
CC[C@H](C)[C@H]1C(=O)N(Cc2cccc3ccccc23)C[C@@H]2N(C(=O)CCc3ccccc3)CCC(=O)N12 | 14.1 µM | – | – | 92% | –
CC[C@H](C)[C@H]1C(=O)N(Cc2ccc3ccccc3c2)C[C@@H]2N(C(=O)NCc3ccc(Br)cc3)CCC(=O)N12 | > 25 µM | – | – | 13.2% | –
CC(C)C[C@H]1C(=O)N(Cc2cccc3ccccc23)C[C@@H]2N(C(=O)NCc3ccccc3)CCC(=O)N21 | 7.2 µM | – | – | 82.5% | –
CC[C@H](C)[C@H]1C(=O)N(Cc2cccc3ccccc23)C[C@@H]2N(C(=O)NCC3CCOCC3)CCC(=O)N12 | > 25 µM | – | – | 6.3% | –
O=C1[C@H](Cc2ccccc2)N2C(=O)CCN(C(=O)NCc3ccccc3)[C@H]2CN1Cc1cccc2ccccc12 | 14.4 µM | – | – | 34% | –

Continued, in another order:

EC50 [1] | EC50 [3] | ΔTm [4] | SMILES | inhibition at 20 µM [2] | inhibition [5]
3.7 µM | – | – | CC[C@H](C)[C@H]1C(=O)N(Cc2cccc3ccccc23)C[C@@H]2N(C(=O)NCc3ccc(F)c(F)c3)CCC(=O)N12 | 99.6% | –
> 25 µM | – | – | CC[C@H](C)[C@H]1C(=O)N(Cc2cccc3ccccc23)C[C@@H]2N(C(=O)NCc3cc(Br)cc(Br)c3)CCC(=O)N12 | 98.4% | –
5.2 µM | – | – | CC[C@H](C)[C@H]1C(=O)N(Cc2cccc3ccccc23)C[C@@H]2N(C(=O)NCc3ccc(I)cc3)CCC(=O)N12 | 97.5% | –
5.6 µM | – | – | CC[C@H](C)[C@H]1C(=O)N(Cc2cccc3ccccc23)C[C@@H]2N(C(=O)NCc3ccc(Br)cc3F)CCC(=O)N12 | 98% | –
10.9 µM | – | – | CC[C@H](C)[C@H]1C(=O)N(Cc2cccc3ccccc23)C[C@@H]2N(C(=O)NCc3cc(F)c(F)c(F)c3)CCC(=O)N12 | 99.5% | –
2.7 µM | – | – | CC[C@H](C)[C@H]1C(=O)N(Cc2cccc3ccccc23)C[C@@H]2N(C(=O)NCc3ccc(Cl)cc3)CCC(=O)N12 | 98.3% | –
3.3 µM | – | – | CC[C@H](C)[C@H]1C(=O)N(Cc2cccc3ccccc23)C[C@@H]2N(C(=O)NCc3ccc(C)cc3)CCC(=O)N12 | 99.4% | –
> 25 µM | – | – | CC[C@H](C)[C@H]1C(=O)N(Cc2cccc3ccccc23)C[C@@H]2N(C(=O)NCc3c(F)cc(Br)cc3F)CCC(=O)N12 | 99.1% | –
15.9 µM | – | – | CC[C@H](C)[C@H]1C(=O)N(Cc2cccc3ccccc23)C[C@@H]2N(C(=O)NCc3c(F)c(F)c(F)c(F)c3F)CCC(=O)N12 | 99.9% | –
2.8 µM | 1.19 µM | 16.4 °C | CC[C@H](C)[C@H]1C(=O)N(Cc2cccc3ccccc23)C[C@@H]2N(C(=O)NCc3ccc(Br)cc3)CCC(=O)N12 | 99.7% | Dose-Dependent Effect
7.7 µM | – | – | CC[C@H](C)[C@H]1C(=O)N(Cc2cccc3ccccc23)C[C@@H]2N(C(=O)NCc3ccc(C(F)(F)F)cc3)CCC(=O)N12 | 95.3% | –
8.7 µM | – | – | CC[C@H](C)[C@H]1C(=O)N(Cc2cccc3ccccc23)C[C@@H]2N(C(=O)NCc3ccc(F)cc3Cl)CCC(=O)N12 | 99.8% | –
3.6 µM | – | – | CC[C@H](C)[C@H]1C(=O)N(Cc2cccc3ccccc23)C[C@@H]2N(C(=O)NCc3cc(F)c(Br)c(F)c3)CCC(=O)N12 | 99.1% | –
3.6 µM | – | – | CC[C@H](C)[C@H]1C(=O)N(Cc2cccc3ccccc23)C[C@@H]2N(C(=O)NCc3ccc(F)c(Br)c3)CCC(=O)N12 | 97.6% | –
7.8 µM | – | – | CC[C@H](C)[C@H]1C(=O)N(Cc2cccc3ccccc23)C[C@@H]2N(C(=O)NCc3ccccc3)CCC(=O)N12 | 97.9% | –
5.4 µM | – | – | CC[C@H](C)[C@H]1C(=O)N(Cc2cccc3ccccc23)C[C@@H]2N(C(=O)NCc3ccc(F)c(OC)c3)CCC(=O)N12 | 98.1% | –
3.4 µM | – | – | CC[C@H](C)[C@H]1C(=O)N(Cc2cccc3ccccc23)C[C@@H]2N(C(=O)NCc3ccc(F)c(Cl)c3)CCC(=O)N12 | 97.9% | –

Source: ChEMBL document CHEMBL5634070, “Assessment of the structure-activity relationship and antileukemic activity of diacylpyramide compounds as human ClpP agonists” (Eur J Med Chem, 2023)
